# Assay: Clinical trial: Wanting, Liking and Intensity ratings of flavored waters after a preload
# Assay type: in vivo, human
# Conditions: prior consumption of the preload, then rating of isoamyl acetate flavored water; 17 participants
# Procedure: Isoamyl acetate was combined with 0.5% w/w sucrose (Fisher Scientific) and dissolved in bottled mineral water (Vittel, Nestlé waters, France). Isoamyl acetate was provided as liquid concentrate supplied by Sigma-Aldrich (Steinheim, Germany). The final concentration of isoamyl acetate was 16 ppm.
# A clinical trial with 17 healthy participants was conducted to investigate the neural correlates of flavor reward in terms of “Liking” (or pleasure) and “Wanting” (or appetite). Seventeen participants rated flavored waters in different conditions while their brain electrical activity was monitored using electro-encephalography. Waters were flavored either with isoamyl acetate (described as banana) or ethyl butyrate (described as strawberry). Experimental conditions consisted in the ratings of the 2 flavored waters after a preload (prior consumption of a flavored water) or without a preload.
# The behavioral results of this clinical trial are summarized in FIG. 1 showing the mean Wanting (or appetite) and Liking (or pleasure) ratings (from 1, not at all to 9, extremely) obtained for the ETB flavored water in the different Preload conditions from 17 participants. […] IAA: isoamyl acetate; ETB: ethyl butyrate.
structure (smiles),measurement,value
CCCC(=O)OCC [ethyl butyrate],appetite for isoamyl acetate flavored water,no impact

# Reference: patent US8647687B2, “Isoamyl acetate for weight management” (Nestec S.A., priority 2008, dated 2014)
